The text below walks through data of patent US8415357B2 (Canbas Co., Ltd., priority 2007, dated 2013).

This experiment concerns Jurkat cells. Briefly: Adaptation to G2 cell cycle arrest (G1 increment) in X-ray pre-arrested Jurkat cells, flow cytometry. In kind it is cell-based, human. The note with it: Homo sapiens, Jurkat, 24 h, Table 2; concentration causing half-maximal increase of % cells in G1 phase (G1 increment); Jurkat pre-arrested by 10 Gy X-ray, 24 hours with compound. The procedure: Phenotype-based screening was used to measure the ability of compounds of the invention to cause adaptation to G2 cell cycle arrest in G2-arrested cells. Adaptation to G2 cell cycle arrest and re-entry into the cell cycle can result in death of the previously G2-arrested cell, or suppression (inhibition) of further proliferation of the previously G2-arrested cell. In a non-limiting embodiment, the ability to cause adaptation to G2 cell cycle arrest was measured by contacting cells in which G2 arrest had been induced by irradiation (e.g., gamma (γ) radiation or X-ray radiation), with compounds of the invention at various concentrations and, for each compound at each concentration, determining the percentage of cells that escaped G2 arrest and re-entered the cell cycle, by determining the percentage of cells in G1 phase. The IC50 value for each compound was calculated as the dosage (usually in μM) that caused half-maximal increase of the percentage of cells in G1 phase (the G1 increment) measured for that compound. Certain invention compounds were initially identified by phenotype-based screening of small molecule libraries for activity against G2-arrested cells as described above.
Jurkat cells (a human T cell lymphoma-derived cell line) were arrested at the G2 phase by X-ray irradiation at 10 Gy, and cultured for 24 hours in 10% fetal calf serum (FCS)/RPMI1640 at 37° C. with 5% CO2/air. (FCS was from Equitech-Bio, Kerrville, Tex., and RPMI1640 was from Sigma-Aldrich, St. Louis, Mo.) Test compounds were added to the medium at the indicated doses, and the cells were cultured under the conditions described above, for an additional 24 hours before harvesting.
Harvested cells were stained with Krishan's buffer (0.1% sodium citrate, 50 μg/ml propidium iodide, 20 μg/ml RNase A, 0.5% Nonidet P-40) and analyzed by flow cytometry (BD Biosciences, Franklin Lakes, N.J.) to identify the cell stage of each cell in the sample. Cells in G1 phase were identified by having […] (2N) DNA content.
The IC50 value for each compound was calculated as the dosage showing half maximal activity to induce the increase of the percentage of cells in G1 phase (the G1 increment). IC50 values were used to measure the activity of compounds and to determine structure-activity relationships.
Pre-arrested Jurkat cells were prepared as described in Example 1. Briefly, Jurkat cells were subjected to X-ray irradiation at a dose of 10 Gy, and cultured for 24 hours in 10% fetal calf serum (FCS)/RPMI1640 at 37° C. with 5% CO2/air, after which time cells were exposed to various concentrations of test compounds, and cultured under the conditions described above for an additional 24 hours before harvesting. Harvested cells were stained with Krishan's buffer (0.1% sodium citrate, 50 μg/ml propidium iodide, 20 μg/ml RNase A, 0.5% Nonidet P-40) and analyzed by flow cytometry (BD Biosciences, Franklin Lakes, N.J.) to identify the cell stage of each cell in the sample. Cells in G1 phase were identified by having […] (2N) DNA content.
The IC50 value for each compound was calculated as the dosage (concentration in μM) that caused half-maximal increase of the percentage of cells in G1 phase (the G1 increment) measured for that test compound. Table 1 below presents the structure, mass, 1H NMR values, and […] values for representative compounds.
The IC50 value for each compound was calculated as the dosage (concentration in μM) that caused half-maximal increase of the percentage of cells in G1 phase (the G1 increment) measured for that test compound. Table 2 below presents structures, IUPAC name, molecular formula, ID number (“SCID”), mass, 1H NMR values, and IC50 values for representative compounds. Table 3 presents structures, IUPAC name, molecular formula, ID number (“SCID”), mass, 1H NMR values, and IC50 values for further representative compounds.
Background: In flow cytometry, cells or beads pass a laser one at a time.

pIC50: −log10 of the molar value.

The term pIC50 denotes −log10 of the IC50, conventionally taken in molar units. Consider `CC1=C(C)C(=O)N(Nc2cc(Cl)c3cccc(C)c3n2)C1=O` [Compound S00871, 1-[(4-chloro-8-methyl(2-quinolyl))amino]-3,4-dimethylazoline-2,5-dione], for which the negative logarithm of the IC50 (pIC50) was 6.20.
For `CC1=C(C)C(=O)N(Nc2cc(C(F)(F)F)c3ccccc3n2)C1=O` [Compound S00873, 3,4-dimethyl-1-{[4-(trifluoromethyl)(2-quinolyl)]amino}azoline-2,5-dione] the value was 6.52; for `CC1=C(C)C(=O)N(Nc2cc(Cl)c3cc(C)ccc3n2)C1=O` [Compound S00935, 1-[(4-chloro-6-methyl(2-quinolyl))amino]-3,4-dimethylazoline-2,5-dione], 6.20.
For `CC1=C(C)C(=O)N(Nc2ccc(Br)c3ccccc23)C1=O` [Compound S00942, 1-[(4-bromonaphthyl)amino]-3,4-dimethylazoline-2,5-dione] the value was 6.20; for `CC1=C(C)C(=O)N(Nc2ccc(C(F)(F)F)c(Br)n2)C1=O` [Compound S00994, 1-{[6-bromo-5-(trifluoromethyl)(2-pyridyl)]amino}-3,4-dimethylazoline-2,5-dione], 6.70; for `CC1=C(C)C(=O)N(Nc2cc(Cl)c3cccc(Cl)c3n2)C1=O` [Compound S01005, 1-[(4,8-dichloro(2-quinolyl))amino]-3,4-dimethylazoline-2,5-dione], 6.70.
For `CC1=C(C)C(=O)N(N(C)c2ccc(C(F)(F)F)c(Br)n2)C1=O` [Compound S01007, 1-{[6-bromo-5-(trifluoromethyl)(2-pyridyl)]methylamino}-3,4-dimethylazoline-2,5-dione] the value was 6.92; for `CC1=C(C)C(=O)N(Nc2cc(CO)c3ccc(Br)cc3n2)C1=O` [Compound S01037, 1-{[7-bromo-4-(hydroxymethyl)(2-quinolyl)]amino}-3,4-dimethylazoline-2,5-dione], 6.20; for `CC(=O)OCc1cc(NN2C(=O)C(C)=C(C)C2=O)nc2cc(Br)ccc12` [Compound S01047, {2-[(3,4-dimethyl-2,5-dioxoazolinyl)amino]-7-bromo-4-quinolyl}methylacetate], 6.20.
Take `CC1=C(C)C(=O)N(Nc2cc(Cl)c3ccc(Cl)c(Cl)c3n2)C1=O` [Compound S01078, 3,4-dimethyl-1-[(4,7,8-trichloro(2-quinolyl))amino]azoline-2,5-dione]: the pIC50 was 7.11.
For `CC1=C(C)C(=O)N(Nc2nc(Cl)cc3ccccc23)C1=O` [Compound S01098, 1-[(3-chloroisoquinolyl)amino]-3,4-dimethylazoline-2,5-dione], the pIC50 is 6.35.
Regarding `COc1ccc(-c2cc(NN3C(=O)C(C)=C(C)C3=O)nc3c(Cl)cccc23)cc1` [Compound S01191, 1-{[8-chloro-4-(4-methoxyphenyl)(2-quinolyl)]amino}-3,4-dimethylazoline-2,5-dione], the pIC50 is 6.20.
For `CC1=C(C)C(=O)N(Nc2cc(Cl)c3ccc4ccccc4c3n2)C1=O` [Compound S01207, 1-[(4-chlorobenzo[h]quinolin-2-yl)amino]-3,4-dimethylazoline-2,5-dione] the value was 6.20; for `CC1=C(C)C(=O)N(Nc2cc(Cl)c3cccc(Br)c3n2)C1=O` [Compound S01247, 1-[(8-bromo-4-chloro(2-quinolyl))amino]-3,4-dimethylazoline-2,5-dione], 7.11.
For `CC1=C(C)C(=O)N(Nc2ccc(C(F)(F)F)c(-c3ccccc3)n2)C1=O` [Compound S01266, 3,4-dimethyl-1-{[6-phenyl-5-(trifluoromethyl)(2-pyridyl)]amino}azoline-2,5-dione] the value was 6.70.
For `CC1=C(C)C(=O)N(Nc2cc(CN3CCN(Cc4ccccc4)CC3)c3ccc(Br)cc3n2)C1=O` [Compound S01268, 1-[(7-bromo-4-{[4-benzylpiperazinyl]methyl}(2-quinolyl))amino]-3,4-dimethylazoline-2,5-dione], the pIC50 was 6.20.
Then `CC1=C(C)C(=O)N(Nc2cc(Cl)c3ccc(Br)cc3n2)C1=O` [Compound S01311, 1-[(7-bromo-4-chloro(2-quinolyl))amino]-3,4-dimethylazoline-2,5-dione], with 6.52.
For `CC1=C(C)C(=O)N(Nc2ccc(C(F)(F)F)c(-c3ccc(F)c(Cl)c3)n2)C1=O` [Compound S01313, 1-{[6-(3-chloro-4-fluorophenyl)-5-(trifluoromethyl)(2-pyridyl)]amino}-3,4-dimethylazoline-2,5-dione], the negative logarithm of the IC50 (pIC50) is 6.52.
As to `CC1=C(C)C(=O)N(Nc2ccc(C(F)(F)F)c(-c3ccc(Cl)cc3)n2)C1=O` [Compound S01371, 1-{[6-(4-chlorophenyl)-5-(trifluoromethyl)(2-pyridyl)]amino}-3,4-dimethylazoline-2,5-dione], the pIC50 was 6.20.
Then `CC1=C(C)C(=O)N(Nc2ccc(C(F)(F)F)c(-c3ccc(C)cc3)n2)C1=O` [Compound S01393, 3,4-dimethyl-1-{[6-(4-methylphenyl)-5-(trifluoromethyl)(2-pyridyl)]amino}azoline-2,5-dione], with 6.20; and `CC1=C(C)C(=O)N(Nc2cc(C(F)(F)F)c3ccc(Cl)c(Cl)c3n2)C1=O` [Compound S01455, 1-{[7,8-dichloro-4-(trifluoromethyl)(2-quinolyl)]amino}-3,4-dimethylazoline-2,5-dione], with 6.81; and `CC1=C(C)C(=O)N(Nc2ccc(C(F)(F)F)c(CC(C)C)n2)C1=O` [Compound S01457, 3,4-dimethyl-1-{[6-(2-methylpropyl)-5-(trifluoromethyl)(2-pyridyl)]amino}azoline-2,5-dione], with 6.52.
Then `CC1=C(CO)C(=O)N(Nc2ccc(C(F)(F)F)c(Cl)n2)C1=O` [Compound S01470, 1-{[6-chloro-5-(trifluoromethyl)(2-pyridyl)]amino}-3-(hydroxymethyl)-4-methylazoline-2,5-dione], with 6.70; and `CC(=O)N(c1ccc(C(F)(F)F)c(Cl)n1)N1C(=O)C(C)=C(C)C1=O` [Compound S01473, N-(3,4-dimethyl-2,5-dioxoazolinyl)-N-[6-chloro-5-(trifluoromethyl) (2-pyridyl)]acetamide], with 6.70; and `CC1=C(C)C(=O)N(Nc2ccc(C(F)(F)F)c(-c3cccc(Cl)c3)n2)C1=O` [Compound S01474, 1-{[6-(3-chlorophenyl)-5-(trifluoromethyl)(2-pyridyl)]amino}-3,4-dimethylazoline-2,5-dione], with 6.20.
With `CC1=C(C)C(=O)N(Nc2ccc(C(F)(F)F)c(C#N)n2)C1=O` [Compound S01475, 6-[(3,4-dimethyl-2,5-dioxoazolinyl)amino]-3-(trifluoromethyl)pyridine-2-carbonitrile], the pIC50 was 6.30.
In the case of `CCC1=C(C)C(=O)N(Nc2ccc(C(F)(F)F)c(Cl)n2)C1=O` [Compound S01553, 1-{[6-chloro-5-(trifluoromethyl)(2-pyridyl)]amino}-3-ethyl-4-methylazoline-2,5-dione], the pIC50 was 6.35.
Then `CC1=C(CCC(C)C)C(=O)N(Nc2ccc(C(F)(F)F)c(Cl)n2)C1=O` [Compound S01554, 1-{[6-chloro-5-(trifluoromethyl)(2-pyridyl)]amino}-4-methyl-3-(3-methylbutyl)azoline-2,5-dione], with 6.92.
